From patent publication US12150940B2, “WASp-protecting small molecules, compositions, methods and uses thereof in the treatment of innate and acquired immune-related disorders or conditions” (BAR ILAN UNIVERSITY, priority 2016, dated 2024)

Legend:
PBMCs = experiment: Lymphocyte activation in PBMCs (CD69 and activated LFA-1, flow cytometry); type: cell-based, human; conditions: PBMCs stimulated with PMA and Ionomycin, vs control
Protocol: Figures show 1×10^6 PBMC cells/ml stimulated with PMA and Ionomycin that were treated with DMSO or WASp-binding SMCs. After incubation, the cells were stained with PE-Cy5™-conjugated mouse anti-human CD69 and lymphocyte activation was measured by flow-cytometry as described in the Experimental procedures. Histograms of DMSO versus SMC #6 (FIG. 8A), SMC #30 (FIG. 8B), SMC #33 (FIG. 8C), and SMC #34 (FIG. 8D) are presented and represent three independent experiments.
After incubation, the cells were stained with anti-activated LFA-1 antibody (KIM127), followed by staining with Alexa488-Fluor goat anti-mouse IgG1 secondary antibody, and lymphocyte activation was measured by flow-cytometry as described in the Experimental procedures. Histogram of negative control versus SMC #6 is presented.
PBMCs or Jurkat cells (about 3×10^5 cells) were incubated for 4 h, at 37° C. with 50 ng/ml PMA and 250 ng/ml lonomycin, or 40 ng/ml PMA and 6 μM Ionomycin, respectively, or left untreated. After incubation, the cells were collected and stained with 1 μg/ml anti-active human LFA-1 antibody (purified from KIM127 hybridoma sup, ATCC Cat #: CRL-2838, Sigma) for 30 min in 37° C., followed by staining with Alexa488-Fluor goat anti-mouse IgG1 secondary antibody (Molecular Probes, Cat #: A-21121), 30 min on ice. Cells were then co-stained with PE-Cy5™-conjugated mouse anti-human CD69 (BD Pharmingen, Cat #: 555532) to measure lymphocyte activation.
Lymphocyte activation is a hallmark of a normal immune response. To test whether treatment with WASp-binding SMCs could upregulate lymphocyte activation, freshly-isolated PBMCs were incubated with SMCs or control (solvent only) and stimulated with PMA and lonomycin. The cells were then stained with two different antibodies, which recognize two lymphocyte activation markers, CD69 and an epitope exposed at the active conformation of the integrin LFA-1 (KIM127). Both were detected by flow-cytometry.

Jurkat T cells = experiment: Lymphocyte migration on ICAM-1/SDF-1α-coated cover glasses; type: cell-based, human; conditions: tracked over 20 min, mean ± SE
Protocol: Jurkat T cells were pretreated with DMSO or the indicated WASp-binding SMCs, and cell migration on ICAM-1/SDF-1α-coated cover glasses was tracked over a 20-min period, as described in Experimental procedures. Each line in FIG. 10A represents one cell. The tracks of five representative cells from each treatment are presented.
Error bars represent the SE from the mean. P values versus DMSO-treated control cells are presented and were calculated by two-tailed Student's t-test.
Approximately 1×10^5 lymphocytes were seeded over chambered coverslips (LabTek) pre-coated with 6 μg/ml ICAM-1 and 2 μg/ml SDF-1α. Cells were incubated at 37° C., 5% CO2 and DIC images were acquired with the Zeiss Observer Z1 inverted microscope every 5 s for 20 min under a 20× objective lens using Zen software. The random movement (Displacement and velocity) of the cells was automatically tracked and analyzed using TrackMate plugin of ImageJ software. An individual trace was assigned to each of the analyzed cells.
A common theme of active lymphocytes is their high migratory ability. This enables them to move within tissues and reach and engage target cells (Burkhardt et al, 2008). Because WASp plays a role in cellular motility, the ability of WASp-binding SMCs to effectively enhance the migration of lymphocytes was tested. The random movement of SMC-treated or control cells was automatically tracked and analyzed using live microscopy, as described in Experimental procedures.

platelets = experiment: Platelet intra-cellular calcium concentration (Indo-1-AM); type: cell-based, human; conditions: TRAP-6 10 μM, vs solvent
Protocol: Freshly-isolated human platelets were incubated with either control DMSO or the indicated WASp-binding SMCs, specifically, SMC #6 (FIG. 11A), SMC #30 (FIG. 11B), SMC #33 (FIG. 11C) and SMC #34 (FIG. 11D). Platelets were stimulated with TRAP-6 and calcium levels were measured by spectrofluorometer, as described in Experimental procedures. Data are representative of three independent experiments.
Cells were incubated with 5 μM Indo-1-acetoxymethylester (Indo-1-AM, Teflabs) in Tyrode's buffer at 37° C. for 20 min. The cells were washed once, resuspended in Tyrode's buffer containing 10 mM HEPES and maintained at room temperature for 20 min. The cells were incubated at 37° C. for 5 min before measurements and then stimulated with 10 μM TRAP-6. The Ca^2+ influx was measured by spectrofluorometer using the Synergy 4 Microplate Reader (Bio Tek).
However, following receptor-mediated stimulation, platelets dramatically elevate their intra-cellular calcium concentrations, which in turn serve as signaling cues that evoke platelet effector functions, including platelet spreading, adhesion and aggregation (Varga-Sabo et al, 2009). Therefore, the ability of WASp-protecting SMCs to upregulate intra-cellular calcium accumulation in activated platelets was next tested. Freshly-isolated human platelets were incubated with SMC #6, #30, #33 and #34 or with the solvent (negative control). Following incubation, platelets were stimulated with thrombin receptor activator peptide TRAP-6 (10 μM) and calcium levels were measured by spectrofluorometer, using Indo-1-AM-based calcium assay as described in Experimental procedures.

WIP-WASp interaction = molecular target: T1, WIP-WASp interaction (Homo sapiens, UniProt P42768, K230R/R34Q); experiment: FRET analysis of WIP-WASp interaction in activated T-cells expressing CFP-WASp and YFP-WIP; type: cell-based; conditions: anti-CD3 stimulatory coverslips, fixed after 5 min; mean ± SE
T1 construct: expressed in transfected cells
Protocol: FIG. 13A: Jurkat T cells stably expressing CFP-WASp and YFP-WIP were treated with WASp-binding SMC #6, SMC #30, SMC #33, SMC #34 or control. The cells were then plated on stimulatory coverslips (coated with an anti-CD3 antibody), and fixed after 5 min. Cells were imaged by confocal microscope, and FRET efficiency was measured by the donor-sensitized acceptor emission technology (see Experimental procedures for details).
FIG. 13B: graph summarizing the percentage FRET efficiency in cells plated on the stimulatory coverslips, with the indicated treatment. Data are from four independent experiments. Error bars represent the SE from the mean. P values were calculated by two-tailed Student's t-test.
Spreading assays were performed as previously described (Fried et al, 2014; Barda-Saad 2005). Briefly, T cells (2×10^6 cells/ml) were seeded on the bottom of chambered cover glasses (LabTek) that were pre-coated with anti-CD3 stimulatory monoclonal antibodies (10 μg/ml). The cells were incubated in imaging buffer [RPMI without phenol red containing 10% fetal calf serum (FCS) and 25 mM HEPES] at 37° C., 5% CO2, for the times indicated in the figure legends. Cells were fixed for 25 min with 4% paraformaldehyde in phosphate-buffered saline (PBS) and then were washed three times with PBS.
Double-color FRET was performed as described previously (Barda-Saad et al, 2005; Pauker, 2011, Pauker, 2012). […] The non-FRET components were calculated and removed with calibration curves derived from images of single-labeled cells containing CFP or YFP, as previously described (Barda-Saad et al, 2005). […] Bleed-through components were calculated as a function of the intensity of the expressed fluorescent proteins with data gathered from single-labeled cell lines. By using the intensity measured pixel by pixel through the different filter sets, as well as cross-talk elements that were isolated from the control, single-labeled cells, the measured FRET was corrected and the actual FRET efficiency at every pixel was determined. The relative FRET efficiency (FRETeff) was calculated on a pixel-by-pixel basis with the following equation: FRETeff=FRETcorr/(FRETcorr+donor)×100%, where FRETcorr is the pixel intensity in the corrected FRET image, and donor is the intensity of the corresponding pixel in the appropriate donor channel image. To increase the reliability of the calculations and to prevent low-level noise from distorting the calculated ratio, the inventors excluded pixels below 50 intensity units, as well as saturated pixels from the calculations, and set their intensities to zero. […] The FRET efficiency in the negative control system was measured and calculated in the same manner as that in the main experiment. […]

human WASp = molecular target: T2, human WASp (Homo sapiens, UniProt P42768, K230R/R34Q); experiment: MicroScale Thermophoresis (MST) binding, YFP-WASp in HEK 293T cell lysate
T2 construct: expressed in transfected cells; host or cells: HEK 293T, transient transfection; unpurified cell lysate
T2 sequence (P42768 1-502 R34Q/K230R): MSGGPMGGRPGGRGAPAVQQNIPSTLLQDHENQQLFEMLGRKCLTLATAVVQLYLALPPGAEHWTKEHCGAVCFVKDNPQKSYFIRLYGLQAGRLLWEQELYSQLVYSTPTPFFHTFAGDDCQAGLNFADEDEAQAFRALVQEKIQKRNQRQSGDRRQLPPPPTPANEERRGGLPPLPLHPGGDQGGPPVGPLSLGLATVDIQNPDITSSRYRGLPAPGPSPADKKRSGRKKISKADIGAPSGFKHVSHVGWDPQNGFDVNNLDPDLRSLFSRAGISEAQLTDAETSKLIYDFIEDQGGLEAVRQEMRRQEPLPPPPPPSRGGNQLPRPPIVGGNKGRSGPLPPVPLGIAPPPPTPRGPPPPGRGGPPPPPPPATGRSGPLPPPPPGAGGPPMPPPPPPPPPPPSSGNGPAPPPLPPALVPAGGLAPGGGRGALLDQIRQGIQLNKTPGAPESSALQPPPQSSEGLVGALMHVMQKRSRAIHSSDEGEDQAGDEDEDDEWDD
Protocol: Diluted cell lysates of YFP-WASp/N-WASp/WAVE2-expressing HEK 293T cells were incubated with serially-diluted (100 μM-3 nM) SMCs. The mixed lysates and SMCs were then loaded into standard-treated Monolith™ capillaries and the fluorescence of the samples was measured by the Monolith NT.115 instrument at 60% MST power. Binding curves of WASp with SMC #6 (FIG. 3A), SMC #30 (FIG. 3B), SMC #33 (FIG. 3C), SMC #34 (FIG. 3D) and Y-27632 (FIG. 3E) or of N-WASp (FIG. 3F) or WAVE2 (FIG. 3G) with SMC #34 were generated by the NanoTemper Analysis 2.231 software. Normalized fluorescence (hot fluorescence/initial fluorescence) is plotted as a function of SMC concentration. […]
YFP-tagged WASp was obtained from cell lysates of Human Embryonic Kidney (HEK) 293T, transiently transfected with YFP-WASp/WAVE2/N-WASp by DNA-calcium phosphate co-precipitation as previously described (Reicher et al, 2012). […] After loading into the instrument (Monolith NT.115, NanoTemper), the samples were measured by standard protocols at 60% MST power. […] KD values were determined using the NanoTemper analysis software (NT Analysis 1.5.37 or 2.2.31).
Following this in silico screening, the inventors identified eight SMCs (#6, #23, #24, #25, #30, #32, #33, #34, see Table 1). […] The SMCs that specifically bind the degradation pocket of WASp were further evaluated by the inventors.

T1 sequence (O43516 whole entry partner, one chain of several): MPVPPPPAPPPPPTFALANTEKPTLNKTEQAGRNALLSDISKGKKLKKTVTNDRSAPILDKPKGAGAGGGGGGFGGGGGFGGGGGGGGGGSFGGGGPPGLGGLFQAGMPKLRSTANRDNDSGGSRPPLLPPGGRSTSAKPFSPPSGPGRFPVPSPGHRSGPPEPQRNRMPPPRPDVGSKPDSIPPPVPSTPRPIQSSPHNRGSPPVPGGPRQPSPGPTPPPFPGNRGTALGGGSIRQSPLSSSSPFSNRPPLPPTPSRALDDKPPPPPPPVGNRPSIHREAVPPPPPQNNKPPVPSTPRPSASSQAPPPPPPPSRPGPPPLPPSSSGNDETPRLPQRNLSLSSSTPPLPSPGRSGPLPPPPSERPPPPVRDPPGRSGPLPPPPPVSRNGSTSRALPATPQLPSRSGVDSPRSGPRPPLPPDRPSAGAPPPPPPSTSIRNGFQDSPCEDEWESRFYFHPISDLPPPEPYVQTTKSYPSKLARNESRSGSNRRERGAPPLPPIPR

Structure (SMILES)	lymphocyte activation (CD69, activated LFA-1) (PBMCs)	mean cell displacement (Jurkat T cells)	intra-cellular calcium concentration in activated platelets (platelets)	average FRET efficiency (WIP-WASp interaction) [%]	binding to WASp (human WASp)
COC(=O)c1ccc2c(=O)n(Cc3ccc(C(=O)NC4CCCC4)cc3)c(=S)[nH]c2c1 [SMC #30, 3-(4-Cyclopentylcarbamoyl-benzyl)-4-oxo-2-thioxo-1,2,3,4-tetrahydro-quinazoline-7-carboxylic acid methyl ester]	upregulation of lymphocyte activation	41.07±4.69	dramatically enhanced	24.4±1.4	–
C[C@@H](N)[C@H]1CC[C@H](C(=O)Nc2ccncc2)CC1 [Y-27632]	–	–	–	–	did not show binding
